# Measured values: patent US9346797B1, “2-amino 6-(difluoromethyl)-5,5-difluoro-6-phenyl-3,4,5,6-tetrahydropyridines as BACE1 inhibitors” (H. Lundbeck A/S, priority 2014, dated 2016)
# pKi: −log10 of the molar value.
# Tests used:
# human BACE1 = human BACE1 (Homo sapiens (Human), UniProt P56817); test: BACE1 binding assay (SPA-based radioligand binding); settings: pH 4.5, Ki calculated from IC50
# Description: The binding assay was performed as SPA-based assay using a biotinylated form of human BACE1 recombinantly expressed and subsequently purified from Freestyle HEK293 cells. The binding assay was run in a 50 mM sodium acetate buffer, pH 4.5 containing 50 mM NaCl and 0.03% Tween-20 in white clear bottom 384 plates (Corning #3653). 10 nM (final concentration) radioligand ([^3H]—N-((1S,2R)-1-benzyl-3-cyclopropylamino-2-hydroxy-propyl)-5-(methanesulfonyl-methyl-amino)-N—((R)-1-phenyl-ethyl)-isophthalamide) (TRQ11569 purchased from GE Healthcare) was mixed with test compound at a given concentration, 6 nM (final concentration) human BACE1 and 25 μg Streptavidin coated PVT core SPA beads (RPNQ0007, GE Healthcare Life Sciences) in a total volume of 40 μl. Several concentrations of each test compound were tested in the assay for IC50 determination. The plates were incubated for one hour at room temperature and counted in a Wallac Trilux counter. Total and non-specific binding were determined using buffer and 1 μM (final concentration) of the high affinity BACE1 reference inhibitor (S)-6-[3-chloro-5-(5-prop-1-ynyl-pyridin-3-yl)-thiophen-2-yl]-2-imino-3,6-dimethyl-tetrahydro-pyrimidin-4-one, respectively. For each test compound, a IC50 value (the concentration mediating 50% inhibition of the specific binding of the radioligand) was determined from concentration-response curve and used to calculate the Ki from the equation Ki=IC50/(1+L/Kd), where L and Kd are the final concentration of the radioligand used in the assay and the dissociation constant of the radioligand, respectively. The Kd of the radioligand was determined from saturation binding experiments.
# P-gp (MDR1) = test: MDCK-MDR1 assay (permeability/efflux); format: in vitro ADME; settings: dog, Papp BA/Papp AB, 60-minute incubation, Pgp substrate when ≧2
# Description: The permeability of the test compounds was assessed in MDCK-MDR1 cells that were cultured to confluency (4-6 days) in a 96 transwell plate. Test compounds were diluted with the transport buffer (HBSS+1% BSA) to a concentration of 0.5 μM and applied to the apical or basolateral side of the cell monolayer. Permeation of the test compounds from A to B direction or B to A direction was determined in triplicate over a 60-minute incubation time at 37° C. and 5% CO2 with a relative humidity of 95%. Test compounds were quantified by LC-MS/MS analysis based on the peaks area ratios of analyte/IS in both the receiver and donor wells of the transwell plate.
# The apparent permeability coefficient Papp (cm/s) was calculated using the equation: Papp=(dCr/dt)×Vr/(A×C0)
# Where dCr/dt is the cumulative concentration of compound in the receiver chamber as a function of time (μM/s); Vr is the solution volume in the receiver chamber (0.05 mL on the apical side; 0.25 mL on the basolateral side); A is the surface area for the transport, i.e. 0.0804 cm^2 for the area of the monolayer; CO is the initial concentration in the donor chamber (μM).
# Compounds are classified Pgp substrates when efflux ratio (Papp BA/Papp AB) is ≧2.
# Chain of human BACE1 (P56817 46-501): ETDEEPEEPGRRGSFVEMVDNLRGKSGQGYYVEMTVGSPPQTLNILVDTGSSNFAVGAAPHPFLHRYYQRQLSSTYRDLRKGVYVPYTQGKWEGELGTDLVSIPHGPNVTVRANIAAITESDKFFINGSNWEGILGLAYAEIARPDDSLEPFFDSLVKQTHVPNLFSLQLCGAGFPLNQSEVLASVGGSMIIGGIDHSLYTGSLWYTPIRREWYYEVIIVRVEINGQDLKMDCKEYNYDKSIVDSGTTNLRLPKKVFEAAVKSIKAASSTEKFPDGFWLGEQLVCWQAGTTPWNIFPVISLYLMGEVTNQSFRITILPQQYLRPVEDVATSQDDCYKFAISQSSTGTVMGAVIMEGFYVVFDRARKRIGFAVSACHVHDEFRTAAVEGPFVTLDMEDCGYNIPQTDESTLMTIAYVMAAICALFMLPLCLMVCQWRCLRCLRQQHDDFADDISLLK
SMILES,pKi (human BACE1),"efflux ratio at 60 min, 0.5 μM (P-gp (MDR1))"
"NC1=N[C@@](c2cc(NC(=O)c3cnc(C(F)F)cn3)ccc2F)(C(F)F)C(F)(F)CC1 [Compound 6, (S)—N-(3-(6-amino-2-(difluoromethyl)-3,3-difluoro-2,3,4,5-tetrahydropyridin-2-yl)-4-fluorophenyl)-5-(difluoromethyl)pyrazine-2-carboxamide]",7.70,1.36
"Cc1nc(C(=O)Nc2ccc(F)c([C@@]3(C(F)F)N=C(N)CCC3(F)F)c2)co1 [Compound 4, (S)—N-(3-(6-amino-2-(difluoromethyl)-3,3-difluoro-2,3,4,5-tetrahydropyridin-2-yl)-4-fluorophenyl)-2-methyloxazole-4-carboxamide]",7.70,4.01
"Cc1cc(C#N)cnc1C(=O)Nc1ccc(F)c([C@@]2(C(F)F)N=C(N)CCC2(F)F)c1 [Compound 11, (S)—N-(3-(6-amino-2-(difluoromethyl)-3,3-difluoro-2,3,4,5-tetrahydropyridin-2-yl)-4-fluorophenyl)-5-cyano-3-methylpicolinamide]",8.11,2.68
"N#Cc1ccc(C(=O)Nc2ccc(F)c([C@@]3(C(F)F)N=C(N)CCC3(F)F)c2)nc1 [Compound 7, (S)—N-(3-(6-amino-2-(difluoromethyl)-3,3-difluoro-2,3,4,5-tetrahydropyridin-2-yl)-4-fluorophenyl)-5-cyanopicolinamide]",8.13,2.43
"COc1cnc(C(=O)Nc2ccc(F)c([C@@]3(C(F)F)N=C(N)CCC3(F)F)c2)c(C)n1 [Compound 10, (S)—N-(3-(6-amino-2-(difluoromethyl)-3,3-difluoro-2,3,4,5-tetrahydropyridin-2-yl)-4-fluorophenyl)-5-methoxy-3-methylpyrazine-2-carboxamide]",7.80,0.98
"Cc1csc(C(=O)Nc2ccc(F)c([C@@]3(C(F)F)N=C(N)CCC3(F)F)c2)n1 [Compound 8, (S)—N-(3-(6-amino-2-(difluoromethyl)-3,3-difluoro-2,3,4,5-tetrahydropyridin-2-yl)-4-fluoro-phenyl)-4-methylthiazole-2-carboxamide]",7.15,0.92
"COc1cnc(C(=O)Nc2ccc(F)c([C@@]3(C(F)F)N=C(N)CCC3(F)F)c2)nc1 [Compound 9, (S)—N-(3-(6-amino-2-(difluoromethyl)-3,3-difluoro-2,3,4,5-tetrahydropyridin-2-yl)-4-fluorophenyl)-5-methoxypyrimidine-2-carboxamide]",8.16,11

# Results, then the molecule that gave them:
pKi (human BACE1),"efflux ratio at 60 min, 0.5 μM (P-gp (MDR1))",SMILES
7.74,1.16,"NC1=N[C@@](c2cc(NC(=O)c3ccc(Cl)cn3)ccc2F)(C(F)F)C(F)(F)CC1 [Compound 1, (S)—N-(3-(6-amino-2-(difluoromethyl)-3,3-difluoro-2,3,4,5-tetrahydropyridin-2-yl)-4-fluorophenyl)-5-chloropicolinamide]"
8.21,1.31,"NC1=N[C@@](c2cc(NC(=O)c3ccc(Br)cn3)ccc2F)(C(F)F)C(F)(F)CC1 [Compound 12, (S)—N-(3-(6-amino-2-(difluoromethyl)-3,3-difluoro-2,3,4,5-tetrahydropyridin-2-yl)-4-fluorophenyl)-5-bromopicolinamide]"
7.64,1.75,"NC1=N[C@@](c2cc(NC(=O)c3ccc(F)cn3)ccc2F)(C(F)F)C(F)(F)CC1 [Compound 2, (S)—N-(3-(6-amino-2-(difluoromethyl)-3,3-difluoro-2,3,4,5-tetrahydropyridin-2-yl)-4-fluorophenyl)-5-fluoropicolinamide]"
